Laboratory results taken from US9656996B2, “Fused heterocyclic compound, preparation method therefor, pharmaceutical composition, and uses thereof” (SHANGHAI YINGLI PHARMACEUTICAL CO., LTD., priority 2013, dated 2017).
pIC50: −log10 of the molar value.

Legend:
[1] = system: Raji cell TNF-α generation; test: Inhibition of human Raji cell TNF-α generation induced by human IgM (ELISA); type: cell-based; settings: Raji cells, IgM stimulation, 24 hours
Method: 1. Raji cell line (human Burkitt's lymphoma origin) (ATCC, Cat#CCL-86) was used.
2. Raji cells were applied onto the 96-well plate with 1×10^5/well.
3. The compounds to be screened were diluted to the corresponding test concentration, and added to the cell culture system 30 minutes prior to IgM stimulation.
4. 10 µg/ml IgM monoclonal antibody (JACKSON, Cat#109-006-129) was added to the cell culture system in order to stimulate the cells generating TNF-α.
5. After 24 hours, the amount of TNF-α produced by the cell line was determined by ELISA.
6. The inhibition rates at each concentration of the compound were calculated and plotted to calculate 50% inhibition rate (IC50), and the specific results were shown in table 3.

[2] = target: PI3Kδ (Homo sapiens (Human), UniProt O00329); test: PI3Kδ enzymatic inhibitory activity IC50 assay; type: biochemical; settings: luminescence readout, 25 μM ATP, 50 μM PIP2, 2 hours at room temperature
Chain of PI3Kδ (O00329 whole entry, species assumed): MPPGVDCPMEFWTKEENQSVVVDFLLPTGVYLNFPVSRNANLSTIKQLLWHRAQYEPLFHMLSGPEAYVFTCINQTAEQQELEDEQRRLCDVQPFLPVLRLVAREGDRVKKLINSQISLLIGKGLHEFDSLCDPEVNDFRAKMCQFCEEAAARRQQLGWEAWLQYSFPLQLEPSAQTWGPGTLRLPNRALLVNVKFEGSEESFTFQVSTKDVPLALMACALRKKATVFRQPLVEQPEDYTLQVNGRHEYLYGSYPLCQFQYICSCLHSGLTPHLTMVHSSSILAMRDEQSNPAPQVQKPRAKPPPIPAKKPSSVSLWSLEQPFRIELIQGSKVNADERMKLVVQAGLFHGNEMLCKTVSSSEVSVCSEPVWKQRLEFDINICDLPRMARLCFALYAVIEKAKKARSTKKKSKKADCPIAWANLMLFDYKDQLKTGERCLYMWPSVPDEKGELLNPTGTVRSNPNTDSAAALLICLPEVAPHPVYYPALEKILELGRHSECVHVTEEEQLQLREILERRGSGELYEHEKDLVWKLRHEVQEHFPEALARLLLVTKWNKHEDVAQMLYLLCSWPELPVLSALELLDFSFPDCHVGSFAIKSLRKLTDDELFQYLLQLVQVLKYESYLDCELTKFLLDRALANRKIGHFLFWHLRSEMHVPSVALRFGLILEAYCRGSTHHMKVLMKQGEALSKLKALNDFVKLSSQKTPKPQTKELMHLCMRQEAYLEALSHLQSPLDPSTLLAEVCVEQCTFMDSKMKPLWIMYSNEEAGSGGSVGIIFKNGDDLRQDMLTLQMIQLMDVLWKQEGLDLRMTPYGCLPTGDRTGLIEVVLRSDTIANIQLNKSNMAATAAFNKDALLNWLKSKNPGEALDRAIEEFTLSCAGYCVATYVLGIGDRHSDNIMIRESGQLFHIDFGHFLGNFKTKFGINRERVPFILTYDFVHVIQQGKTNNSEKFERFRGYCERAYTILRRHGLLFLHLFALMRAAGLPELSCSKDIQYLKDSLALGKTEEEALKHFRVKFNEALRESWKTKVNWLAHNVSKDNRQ
Chain of PI3Kδ (P27986 whole entry partner, species assumed): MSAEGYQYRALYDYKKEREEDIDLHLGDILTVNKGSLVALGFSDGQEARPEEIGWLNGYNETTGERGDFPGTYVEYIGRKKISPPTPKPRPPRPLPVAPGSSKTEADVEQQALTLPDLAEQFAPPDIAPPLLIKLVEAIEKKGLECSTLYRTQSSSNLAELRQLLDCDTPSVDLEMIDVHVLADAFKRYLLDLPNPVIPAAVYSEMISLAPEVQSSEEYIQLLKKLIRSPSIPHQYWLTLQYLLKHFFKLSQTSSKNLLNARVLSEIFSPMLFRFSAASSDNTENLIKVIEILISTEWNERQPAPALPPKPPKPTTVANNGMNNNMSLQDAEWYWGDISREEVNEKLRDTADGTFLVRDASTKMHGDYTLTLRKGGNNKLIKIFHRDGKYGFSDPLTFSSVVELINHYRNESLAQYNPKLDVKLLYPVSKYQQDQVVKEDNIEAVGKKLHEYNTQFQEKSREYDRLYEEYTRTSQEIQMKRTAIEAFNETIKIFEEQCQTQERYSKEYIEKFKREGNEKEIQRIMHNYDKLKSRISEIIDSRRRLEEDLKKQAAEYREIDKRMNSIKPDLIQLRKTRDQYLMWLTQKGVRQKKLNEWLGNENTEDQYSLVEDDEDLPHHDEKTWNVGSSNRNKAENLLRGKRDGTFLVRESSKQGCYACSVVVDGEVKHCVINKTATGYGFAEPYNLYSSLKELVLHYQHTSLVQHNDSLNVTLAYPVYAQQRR
Method: (§1) 1. Buffer preparation: 50 mM HEPES, pH 7.5, 3 mM MgCl2, 1 mM EGTA, 100 mM NaCl, 0.03% CHAPS.
(§2) 2. The compound was formulated in 100% DMSO in a concentration gradient, and deposited to a 384-well plate with a final DMSO concentration of 1%.
(§3) 3. PI3Kα, PI3Kδ, PI3Kβ and PI3Kγ enzymes (purchased from EMD Millipore) were diluted to the optimal concentration with the following buffer: 50 mM HEPES, pH 7.5, 3 mM MgCl2, 1 mM EGTA, 100 mM NaCl, 0.03% CHAPS, 2 mM DTT, transferred to a 384-well plate and incubated with the compound for a certain time.
(§4) 4. The substrate was diluted to an optimal concentration with the following buffer: 50 mM HEPES, pH 7.5, 3 mM MgCl2, 1 mM EGTA, 100 mM NaCl, 0.03% CHAPS, 2 mM DTT, 50 μM PIP2, 25 μM ATP and added to the 384-well plate to initiate the reaction. PI3Kα, PI3Kβ and PI3Kγ were allowed to react for 1 h at room temperature, and PI3Kδ reacted for 2 hours at room temperature. Another 10 μL ADP-Glo Detection Reagent also needed to be added for PI3Kβ and PI3Kγ, and then equilibrated at room temperature for 30 minutes.
(§5) 5. Luminescence was read by using Flexstation, and the inhibition rate was calculated as the average value of two tests.

[3] = target: PI3Kα (Homo sapiens (Human), UniProt P42336); test: PI3Kα enzymatic inhibitory activity IC50 assay; type: biochemical; settings: selectivity ratio
Chain of PI3Kα (P42336 whole entry, species assumed): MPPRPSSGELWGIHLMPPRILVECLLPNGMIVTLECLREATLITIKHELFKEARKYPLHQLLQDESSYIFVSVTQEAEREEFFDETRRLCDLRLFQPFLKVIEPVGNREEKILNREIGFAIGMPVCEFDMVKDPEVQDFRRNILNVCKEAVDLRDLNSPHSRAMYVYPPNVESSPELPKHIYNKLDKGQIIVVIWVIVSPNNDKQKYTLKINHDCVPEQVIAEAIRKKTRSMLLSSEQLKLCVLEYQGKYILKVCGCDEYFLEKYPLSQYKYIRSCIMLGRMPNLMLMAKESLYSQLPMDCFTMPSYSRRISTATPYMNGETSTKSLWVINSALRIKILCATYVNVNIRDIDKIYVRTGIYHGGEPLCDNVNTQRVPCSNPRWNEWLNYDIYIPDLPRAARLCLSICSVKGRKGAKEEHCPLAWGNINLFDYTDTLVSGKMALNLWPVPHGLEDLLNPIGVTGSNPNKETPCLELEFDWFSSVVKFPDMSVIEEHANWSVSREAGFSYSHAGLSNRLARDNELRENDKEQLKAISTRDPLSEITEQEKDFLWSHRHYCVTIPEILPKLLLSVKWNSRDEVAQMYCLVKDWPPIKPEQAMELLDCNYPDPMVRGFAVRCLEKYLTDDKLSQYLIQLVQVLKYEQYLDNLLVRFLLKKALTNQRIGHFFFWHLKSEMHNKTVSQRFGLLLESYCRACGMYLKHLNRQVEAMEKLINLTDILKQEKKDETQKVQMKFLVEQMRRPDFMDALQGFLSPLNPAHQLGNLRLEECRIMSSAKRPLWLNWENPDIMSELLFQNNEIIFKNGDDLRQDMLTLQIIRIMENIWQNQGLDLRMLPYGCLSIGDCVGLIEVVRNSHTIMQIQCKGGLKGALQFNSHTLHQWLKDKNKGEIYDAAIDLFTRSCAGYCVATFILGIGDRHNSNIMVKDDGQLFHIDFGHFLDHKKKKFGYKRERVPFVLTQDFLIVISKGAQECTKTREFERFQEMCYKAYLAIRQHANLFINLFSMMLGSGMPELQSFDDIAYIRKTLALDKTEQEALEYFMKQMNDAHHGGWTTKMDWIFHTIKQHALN
Chain of PI3Kα (P27986 whole entry partner, species assumed): as the sequence (P27986 whole entry partner, species assumed) above
Method: as §1, §2, §3, §4, §5

[4] = target: PI3Kγ (Homo sapiens (Human), UniProt P48736); test: PI3Kγ enzymatic inhibitory activity IC50 assay; type: biochemical; settings: selectivity ratio
Chain of PI3Kγ (P48736 whole entry, species assumed): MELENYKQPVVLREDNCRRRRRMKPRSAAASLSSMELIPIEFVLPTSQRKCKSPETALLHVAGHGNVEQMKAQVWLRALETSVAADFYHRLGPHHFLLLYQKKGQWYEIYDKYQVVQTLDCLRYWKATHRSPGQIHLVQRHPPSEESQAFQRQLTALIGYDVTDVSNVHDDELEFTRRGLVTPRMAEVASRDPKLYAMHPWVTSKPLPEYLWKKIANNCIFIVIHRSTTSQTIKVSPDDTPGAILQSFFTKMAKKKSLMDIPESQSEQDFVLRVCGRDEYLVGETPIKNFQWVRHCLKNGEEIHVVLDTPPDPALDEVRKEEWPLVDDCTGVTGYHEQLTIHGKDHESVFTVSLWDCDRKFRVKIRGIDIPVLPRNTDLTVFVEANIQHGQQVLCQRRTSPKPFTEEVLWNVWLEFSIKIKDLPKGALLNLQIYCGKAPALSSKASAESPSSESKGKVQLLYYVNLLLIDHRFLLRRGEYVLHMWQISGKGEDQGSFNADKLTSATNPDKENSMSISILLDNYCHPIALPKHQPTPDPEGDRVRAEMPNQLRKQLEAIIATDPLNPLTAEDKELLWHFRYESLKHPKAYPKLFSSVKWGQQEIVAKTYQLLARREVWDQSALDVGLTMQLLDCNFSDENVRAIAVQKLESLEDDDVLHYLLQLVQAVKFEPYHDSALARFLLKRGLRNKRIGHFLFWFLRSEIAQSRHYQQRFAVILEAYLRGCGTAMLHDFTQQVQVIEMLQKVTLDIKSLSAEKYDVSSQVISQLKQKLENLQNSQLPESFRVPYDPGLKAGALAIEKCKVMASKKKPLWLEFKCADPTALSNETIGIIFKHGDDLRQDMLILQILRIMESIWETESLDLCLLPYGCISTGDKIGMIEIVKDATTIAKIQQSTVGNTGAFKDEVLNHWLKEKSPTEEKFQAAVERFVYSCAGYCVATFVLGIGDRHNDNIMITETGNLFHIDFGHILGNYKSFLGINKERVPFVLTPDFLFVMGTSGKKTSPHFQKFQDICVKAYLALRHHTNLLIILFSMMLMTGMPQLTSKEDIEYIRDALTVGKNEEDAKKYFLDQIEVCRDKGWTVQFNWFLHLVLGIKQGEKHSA
Method: as §1, §2, §3, §4, §5

[5] = target: PI3Kβ (Homo sapiens (Human), UniProt P42338); test: PI3Kβ enzymatic inhibitory activity IC50 assay; type: biochemical; settings: selectivity ratio
Chain of PI3Kβ (P42338 whole entry, species assumed): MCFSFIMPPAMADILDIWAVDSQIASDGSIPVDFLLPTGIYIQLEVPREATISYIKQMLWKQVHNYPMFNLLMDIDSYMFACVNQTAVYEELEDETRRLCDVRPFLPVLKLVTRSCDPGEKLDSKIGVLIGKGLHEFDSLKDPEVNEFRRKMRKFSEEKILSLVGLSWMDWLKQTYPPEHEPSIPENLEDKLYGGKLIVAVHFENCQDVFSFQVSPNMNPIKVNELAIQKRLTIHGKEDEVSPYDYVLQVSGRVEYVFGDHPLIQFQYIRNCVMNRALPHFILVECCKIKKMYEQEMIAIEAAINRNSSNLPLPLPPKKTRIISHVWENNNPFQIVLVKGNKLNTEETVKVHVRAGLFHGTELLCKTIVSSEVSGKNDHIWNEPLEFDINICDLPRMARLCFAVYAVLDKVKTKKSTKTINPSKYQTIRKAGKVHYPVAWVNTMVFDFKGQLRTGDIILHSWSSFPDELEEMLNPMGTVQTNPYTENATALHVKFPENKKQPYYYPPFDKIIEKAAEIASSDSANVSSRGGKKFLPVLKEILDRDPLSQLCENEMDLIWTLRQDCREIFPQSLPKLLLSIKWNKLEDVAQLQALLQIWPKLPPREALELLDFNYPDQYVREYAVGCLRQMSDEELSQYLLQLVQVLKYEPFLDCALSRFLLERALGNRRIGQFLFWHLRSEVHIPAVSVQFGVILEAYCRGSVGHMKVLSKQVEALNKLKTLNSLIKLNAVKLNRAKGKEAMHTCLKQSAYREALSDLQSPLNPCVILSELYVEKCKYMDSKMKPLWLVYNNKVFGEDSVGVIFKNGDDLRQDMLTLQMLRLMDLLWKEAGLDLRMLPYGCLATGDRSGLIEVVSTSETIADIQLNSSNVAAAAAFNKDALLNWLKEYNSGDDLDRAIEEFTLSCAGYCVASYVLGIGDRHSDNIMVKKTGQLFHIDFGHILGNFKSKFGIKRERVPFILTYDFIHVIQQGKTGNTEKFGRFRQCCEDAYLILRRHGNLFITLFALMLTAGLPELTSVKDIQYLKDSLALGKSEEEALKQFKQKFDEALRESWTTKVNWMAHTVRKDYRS
Chain of PI3Kβ (P27986 whole entry partner, species assumed): as the sequence (P27986 whole entry partner, species assumed) above
Method: as §1, §2, §3, §4, §5

| Compound | pIC50 [1] | pIC50 [2] | α/δ (ratio of IC50 values against PI3Kα to PI3Kδ) [3] | γ/δ (ratio of IC50 values against PI3Kγ to PI3Kδ) [4] | β/δ (ratio of IC50 values against PI3Kβ to PI3Kδ) [5] |
| --- | --- | --- | --- | --- | --- |
| COc1ncc(-c2nc(N3CCOCC3)nc3c(CN4CCC(N5CCCCC5)CC4)cc(F)cc23)cc1NS(C)(=O)=O [Compound 7] | 7.46 | 7.51 | 130 | >322 | 166 |
| COc1ncc(-c2nc(N3CCOCC3)nc3c(O[C@@H]4CCOC4)cc(F)cc23)cc1NS(C)(=O)=O [Compound 30] | 6.45 | 7.39 | 15 | – | – |
| COc1ncc(-c2nc(N3CCOCC3)nc3c(CN4CCN(C)C(=O)C4)cc(F)cc23)cc1NS(C)(=O)=O [Compound 29] | – | 7.72 | 22 | – | – |
| C[C@@H](O)C(=O)N1CCN(Cc2cccc3c(-c4cnc(N)nc4)nc(N4CCOCC4)nc23)CC1 [Compound 4] | – | 7.35 | 2 | – | – |
| COc1ncc(-c2nc(N3CCOCC3)c3nc(OC4CCOCC4)n(C)c3n2)cc1NS(C)(=O)=O [Compound 20] | – | 8.34 | 15 | – | – |
| Nc1ncc(-c2nc(N3CCOCC3)nc3c(CN4CCN(C(=O)CO)CC4)cc(F)cc23)cn1 [Compound 22] | – | 7.51 | 2 | – | – |
| CS(=O)(=O)N1CCN(Cc2cccc3c(-c4cnc(N)nc4)nc(N4CCOCC4)nc23)CC1 [Compound 5] | – | 7.23 | 1 | – | – |
| COc1ncc(-c2nc(N3CCOCC3)nc3c(CN4CCC(OC)CC4)cccc23)cc1NS(C)(=O)=O [Compound 2] | 7.03 | 7.77 | 368 | – | – |
| CS(=O)(=O)N1CCN(Cc2cccc3c(-c4cccc5[nH]ncc45)nc(N4CCOCC4)nc23)CC1 [Compound 6] | – | 6.34 | 2.4 | – | – |
| COc1ncc(-c2nc(N3CCOCC3)nc3c(CN4CC(C(C)(C)O)C4)cc(F)cc23)cc1NS(C)(=O)=O [Compound 27] | 6.64 | 7.62 | 83 | – | – |
| CN1CCN(Cc2cnc3c(-c4cncc(NS(C)(=O)=O)c4)nc(N4CCOCC4)cn23)CC1 [Compound 14] | – | 5.99 | >9 | – | – |
| CS(=O)(=O)N1CCN(Cc2cnn3c(-c4cccc5[nH]ncc45)cc(N4CCOCC4)nc23)CC1 [Compound 11] | – | 6.22 | 2.3 | – | – |
| COc1ncc(-c2nc(N3CCOCC3)c3nc(OC4CCC(N5CCCC5)CC4)n(C)c3n2)cc1NS(C)(=O)=O (stereo not shown) [Compound 21] | – | 7.82 | 91 | – | – |
| COc1ncc(-c2nc(N3CCOCC3)nc3c(OC4CN(C5CCOCC5)C4)cc(F)cc23)cc1NS(C)(=O)=O [Compound 38] | 7.49 | 7.80 | 28 | – | – |
| COc1ncc(-c2nc(N3CCOCC3)nc3c(OC4CCOCC4)cc(F)cc23)cc1NS(C)(=O)=O [Compound 32] | – | 7.42 | 23 | – | – |
| COc1ncc(-c2nc(N3CCOCC3)nc3c(CN4CC[C@@H](N5CCCCC5=O)C4)cc(F)cc23)cc1NS(C)(=O)=O [Compound 24] | – | 7.68 | 45 | – | – |
| COc1ncc(-c2nc(N3CCOCC3)nc3c(OC4CCC(N5CCCCC5)CC4)cc(F)cc23)cc1NS(C)(=O)=O (stereo not shown) [Compound 35] | 6.98 | 7.70 | 227 | >500 | 322 |
| COc1ncc(-c2nc(N3CCOCC3)nc3c(OC4CC(C(C)(C)O)C4)cc(F)cc23)cc1NS(C)(=O)=O (stereo not shown) [Compound 37] | – | 6.93 | 42 | >85 | >85 |

| Compound | pIC50 [1] | pIC50 [2] | α/δ (ratio of IC50 values against PI3Kα to PI3Kδ) [3] | γ/δ (ratio of IC50 values against PI3Kγ to PI3Kδ) [4] | β/δ (ratio of IC50 values against PI3Kβ to PI3Kδ) [5] |
| --- | --- | --- | --- | --- | --- |
| COc1ncc(-c2nc(N3CCOCC3)c3sc(CN4CCC(C(C)(C)O)CC4)c(C)c3n2)cc1NS(C)(=O)=O [Compound 17] | – | 8.47 | 38 | – | – |
| COc1ncc(-c2nc(N3CCOCC3)nc3c(OC4CCC(C(C)(C)O)CC4)cc(F)cc23)cc1NS(C)(=O)=O (stereo not shown) [Compound 28] | – | 7.11 | 63 | >129 | >129 |
| CC(C)(O)C1CCN(Cc2cnc3c(-c4cncc(NS(C)(=O)=O)c4)nc(N4CCOCC4)cn23)CC1 [Compound 13] | – | 6.62 | >42 | – | – |
| COc1ncc(-c2nc(N3CCOCC3)nc3c(CN4CCC(C(C)(C)O)CC4)cc(F)cc23)cc1NS(C)(=O)=O [Compound 10] | 7.18 | 8.19 | 320 | >1000 | 31 |
| COc1ncc(-c2nc(N3CCOCC3)nc3c(OC4CN(C(=O)C(C)C)C4)cc(F)cc23)cc1NS(C)(=O)=O [Compound 39] | 6.97 | 7.66 | 58 | – | – |
| COc1ncc(-c2nc(N3CCOCC3)nc3c(OC4CCC(N5CCCCC5)CC4)cc(F)cc23)cc1NS(C)(=O)=O (stereo not shown) [Compound 34] | 7.18 | 7.74 | 202 | >549 | 360 |
| COc1ncc(-c2nc(N3CCOCC3)c3sc(CN4CCC(N(C)C(C)C)CC4)c(C)c3n2)cc1NS(C)(=O)=O [Compound 16] | 7.70 | 7.82 | 42 | >650 | 341 |
| COc1ncc(-c2nc(N3CCOCC3)nc3c(CN4CCC(N5CCCCC5=O)CC4)cc(F)cc23)cc1NS(C)(=O)=O [Compound 23] | 7.05 | 7.80 | 79 | >625 | 40 |
| COc1ncc(-c2nc(N3CCOCC3)nc3c(CN4CCC(N5CCCCC5)CC4)cccc23)cc1NS(C)(=O)=O [Compound 3] | 7.50 | 7.51 | 119 | – | – |
| COc1ncc(-c2nc(N3CCOCC3)nc3c(CN4CCC(C(C)(C)O)CC4)cccc23)cc1NS(C)(=O)=O [Compound 1] | 7.54 | 8.12 | 341 | – | – |
| COc1ncc(-c2nc(N3CCOCC3)nc3c(OCCN4CCCCC4)cc(F)cc23)cc1NS(C)(=O)=O [Compound 33] | 6.59 | 7.33 | 113 | – | – |
| COc1ncc(-c2nc(N3CCOCC3)nc3c(OCC4CCOCC4)cc(F)cc23)cc1NS(C)(=O)=O [Compound 31] | – | 7.57 | 24 | – | – |
| COc1ncc(-c2nc(N3CCOCC3)c3nc(OC4CCN(C5COC5)CC4)n(C)c3n2)cc1NS(C)(=O)=O [Compound 18] | 7.82 | 8.38 | 11 | – | – |
| COc1ncc(-c2nc(N3CCOCC3)nc3c(CN4CCC(N5CCC5)CC4)cc(F)cc23)cc1NS(C)(=O)=O [Compound 9] | – | 7.72 | 233 | – | – |
| COc1ncc(-c2nc(N3CCOCC3)c3nc(OC4CN(C5CCCCC5)C4)n(C)c3n2)cc1NS(C)(=O)=O [Compound 19] | – | 8.30 | 88 | – | – |
| COc1ncc(-c2nc(N3CCOCC3)nc3c(CN4CCC(N5CCCC5)CC4)cc(F)cc23)cc1NS(C)(=O)=O [Compound 8] | 7.55 | 8.01 | 292 | – | – |
| COc1ncc(-c2nc(N3CCOCC3)nc3c(CN4CCC[C@H]4C(C)(C)O)cc(F)cc23)cc1NS(C)(=O)=O [Compound 26] | – | 7.06 | 32 | – | – |
| COc1ncc(-c2nc(N3CCOCC3)c3cc(CN4CCC(N5CCCCC5)CC4)ccc3n2)cc1NS(C)(=O)=O [Compound 15] | – | 6.46 | 23 | >29 | >29 |
